Test in all cases: NCI-60 cell line screen, 48 h
Assay [1] deals with A549.
Assay [2] has as its system CAKI-1.
In assay [3] the test system is DU-145.
Assay [4] relates to EKVX.
Assay [5] concerns HCC 2998.
For assay [6], the system named is HOP-62.
Assay [7] deals with HT-29.
Assay [8] deals with Hs-578T.
The test system of assay [9] is K562.
Assay [10] deals with MDA-MB-231.
Assay [11] has as its system NCI-H522.
The subject of assay [12] is OVCAR-3.
Assay [13] has as its system OVCAR-4.
The subject of assay [14] is OVCAR-8.
Assay [15] relates to PC-3.
In assay [16] the test system is RPMI-8226.
The subject of assay [17] is RXF 393.
In assay [18] the test system is SF-539.
The subject of assay [19] is SK-MEL-2.
The test system of assay [20] is SR.

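Method: 48-hour compound exposure of cells in 96-well plates, five concentrations, linear interpolation of endpoints. At the GI50, growth is halved.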 The source made the active and inactive calls. No stated cut-off is given here; in the data, active = GI50 up to about 1.1 µM and inactive = higher. A value given as a limit tells only on which side of the number the result lay.

As to `O=c1c2ncn(C3CCCCO3)c2n(-c2ccccc2)c(=S)n1-c1ccccc1` (stereo not given), the GI50 is 78 µM (inactive) in [1]; 42.4 µM (inactive) in [2]; > 71.3 µM (inactive) in assay [3]; 39.5 µM (inactive) in [4]; > 70 µM (inactive) in [5]; 10.4 µM (inactive) in assay [6]. In addition, the GI50 in assay [7] is > 76.4 µM (inactive); in assay [8] it was 10.1 µM (inactive); in [9] it was > 68.7 µM (inactive); in assay [10], 26.2 µM (inactive); in [11], 39.6 µM (inactive); in assay [12], > 61.9 µM (inactive). Also, the GI50 is 40.4 µM (inactive) in assay [13]; 19 µM (inactive) in [14]; 80.4 µM (inactive) in assay [15]; > 52.7 µM (inactive) in [16]; 7.8 µM (inactive) in assay [17]; 10.8 µM (inactive) in assay [18]. Moreover, the GI50 in [19] is 39.2 µM (inactive); in assay [20], > 4.65 µM (inactive).
For `CC(C)(CO)CNc1nc(N)nc(Cl)c1C=O`, the GI50 in assay [1] is 71.1 µM (inactive); in assay [2], 11.9 µM (inactive); in assay [3], 94 µM (inactive); in assay [4], 45.9 µM (inactive); in assay [5] it was 4.51 µM (inactive); in [6], 23.2 µM (inactive). Besides, the GI50 in [7] is 45.2 µM (inactive); in assay [8], 22.9 µM (inactive); in [9], 5.19 µM (inactive); in [10], 30.1 µM (inactive); in assay [11], 7.67 µM (inactive); in assay [12], 25.6 µM (inactive). For the same molecule, the GI50 is 36.1 µM (inactive) in assay [13]; 22.5 µM (inactive) in [14]; 16.8 µM (inactive) in assay [15]; 60.5 µM (inactive) in assay [16]; 17.6 µM (inactive) in [17]; 54.2 µM (inactive) in [18]. The GI50 was 16.8 µM (inactive) in [19] and 17.5 µM (inactive) in assay [20].
As for `O=c1[nH]nc(Cc2ccc(Cl)cc2)n1O`, the GI50 in assay [1], in [2], in assay [3], in assay [4], in assay [5] and in assay [6] was > 100 µM (inactive) each time. The GI50 in [7], in [8], in assay [9], in assay [10], in [11] and in assay [12] was > 100 µM (inactive) each time. Moreover, the GI50 in [13], in [14], in [15], in assay [16], in assay [17] and in [18] was > 100 µM (inactive) in each case. Further, the GI50 in [19] and in assay [20] was > 100 µM (inactive) each time.
In the case of `CC(=O)N(C(C)=O)n1c(Cc2ccc(Cl)cc2)n[nH]c1=O`, the GI50 in [1] is > 100 µM (inactive); in assay [2], > 100 µM (inactive); in [3], > 100 µM (inactive); in assay [4], > 100 µM (inactive); in [5], > 100 µM (inactive); in assay [6] it was > 55.8 µM (inactive). Besides, the GI50 in assay [7], in [8], in assay [9], in [10], in assay [11] and in [12] was > 100 µM (inactive) throughout. In addition, the GI50 is > 100 µM (inactive) in assay [13]; > 100 µM (inactive) in assay [14]; > 100 µM (inactive) in assay [15]; > 100 µM (inactive) in assay [16]; 28.5 µM (inactive) in assay [17]; > 100 µM (inactive) in assay [18]. The GI50 in [19] and in assay [20] was > 100 µM (inactive) in each case.
Turning to `O=C(c1no[n+]([O-])c1C(=O)c1csc2ccccc12)c1csc2ccccc12`, the GI50 in assay [1] is 10 µM (inactive); in [2] it was 0.82 µM (active); in assay [3], 17.9 µM (inactive); in [4], 3.55 µM (inactive); in assay [5], 4.6 µM (inactive); in assay [6], 9.33 µM (inactive). The GI50 in [7] is 3.64 µM (inactive); in assay [8], 10.2 µM (inactive); in [9], 1.52 µM (inactive); in assay [10], 5.64 µM (inactive); in assay [11], 0.652 µM (active); in assay [12], 1.86 µM (inactive). The GI50 was 2.86 µM (inactive) in assay [13]; 3.09 µM (inactive) in assay [14]; 3.13 µM (inactive) in assay [15]; 0.521 µM (active) in [16]; 7.19 µM (inactive) in assay [17]; 2.61 µM (inactive) in [18]. In addition, the GI50 is 6.68 µM (inactive) in [19] and 0.106 µM (active) in assay [20].
For `CCC1CN2CCc3c([nH]c4ccccc34)[C@@](C(=O)OC)(c3cc4c(cc3OC)N(C)C3C(O)(C(=O)OC)C(C(=O)OC)C5(CC)C=CCN6CCC43C65)C[C@@H](C2)[C@@H]1C(C)(C)C` (stereo not given in full), the GI50 in [1] was 0.649 µM (active); in assay [2], 4.27 µM (inactive); in assay [3] it was 0.342 µM (active); in assay [4], 1.98 µM (inactive); in [5] it was 0.373 µM (active); in assay [6] it was 0.257 µM (active). Moreover, the GI50 in [7] is 0.328 µM (active); in [8] it was 0.463 µM (active); in [9] it was 0.334 µM (active); in assay [10], 0.407 µM (active); in [11], 0.292 µM (active); in assay [12] it was 0.316 µM (active). For the same molecule, the GI50 was 3.15 µM (inactive) in assay [13]; 0.5 µM (active) in [14]; 0.286 µM (active) in [15]; 0.469 µM (active) in [16]; 0.285 µM (active) in assay [17]; 0.381 µM (active) in assay [18]. The GI50 in [19] was 0.41 µM (active); in assay [20] it was 0.473 µM (active).
`CCOP(=O)(OCC)C(Nc1cccc(F)c1)c1ccc(N(C)C)cc1` (stereo not given): the GI50 in [1] is 52.7 µM (inactive); in [2], > 100 µM (inactive); in assay [3], > 100 µM (inactive); in assay [4] it was 99.1 µM (inactive); in assay [5], 64 µM (inactive); in assay [6], > 100 µM (inactive). Also, the GI50 in [7] is 59.2 µM (inactive); in assay [8], > 100 µM (inactive); in [9], 49.1 µM (inactive); in assay [10], 78.2 µM (inactive); in [11], 75.5 µM (inactive); in assay [12] it was > 100 µM (inactive). Besides, the GI50 in assay [13] was > 100 µM (inactive); in [14], > 100 µM (inactive); in [15], 62.1 µM (inactive); in assay [16], 67.6 µM (inactive); in assay [17] it was > 100 µM (inactive); in assay [18] it was > 100 µM (inactive). The GI50 in [19] and in [20] was > 100 µM (inactive) in each case.
In the case of `C=CCSC1=N/C(=C\c2ccc(C)cc2)C(=O)N1CC=C`, the GI50 was 21.3 µM (inactive) in assay [1]; 80 µM (inactive) in assay [2]; 20.7 µM (inactive) in [3]; 10.1 µM (inactive) in assay [4]; 23.8 µM (inactive) in [5]; 64.6 µM (inactive) in [6]. Besides, the GI50 in assay [7] was 13.9 µM (inactive); in [8], 54.8 µM (inactive); in assay [9], 10.4 µM (inactive); in [10] it was 90.4 µM (inactive); in assay [11] it was 26.7 µM (inactive); in assay [12], 57.5 µM (inactive). Further, the GI50 in [13] was 27.3 µM (inactive); in [14] it was 24.8 µM (inactive); in [15], 22.2 µM (inactive); in [16], 13.9 µM (inactive); in [17] it was 15.3 µM (inactive); in assay [18], 25.8 µM (inactive). In addition, the GI50 in assay [19] was 25.8 µM (inactive); in assay [20], 11.5 µM (inactive).
`CCOC(=O)c1cc(C2=CCNC2=O)c(-c2cc(C)no2)[nH]1`: the GI50 in assay [1] was 37.4 µM (inactive); in [2], > 100 µM (inactive); in assay [3], > 100 µM (inactive); in assay [4] it was 59.4 µM (inactive); in assay [5], > 100 µM (inactive); in [6] it was 73.3 µM (inactive). Also, the GI50 is 43.5 µM (inactive) in [7]; 95.5 µM (inactive) in [8]; 34.8 µM (inactive) in assay [9]; 36.4 µM (inactive) in assay [10]; 16.7 µM (inactive) in [11]; 45.6 µM (inactive) in assay [12]. Besides, the GI50 in assay [13] was 49.5 µM (inactive); in assay [14], 45 µM (inactive); in [15], 55.6 µM (inactive); in assay [16] it was 36.7 µM (inactive); in [17], 49.2 µM (inactive); in assay [18], > 100 µM (inactive). In addition, the GI50 in assay [19] was > 100 µM (inactive); in assay [20], 33.2 µM (inactive).
In the case of `CC(C)c1ccc(/C=C2/C=C(c3ccc4ccccc4c3)OC2=O)cc1`, the GI50 in assay [1] was > 89.7 µM (inactive); in assay [2] it was > 82.4 µM (inactive); in assay [3], > 100 µM (inactive); in assay [4], 40 µM (inactive); in assay [5] it was > 100 µM (inactive); in assay [6] it was > 100 µM (inactive). The GI50 in assay [7] was > 95.3 µM (inactive); in [8], > 75.2 µM (inactive); in assay [9] it was 25.2 µM (inactive); in assay [10], 99.8 µM (inactive); in assay [11] it was 10.5 µM (inactive); in [12] it was 60 µM (inactive). Moreover, the GI50 in [13] was > 100 µM (inactive); in [14] it was 45.2 µM (inactive); in assay [15] it was 49 µM (inactive); in [16], 31.3 µM (inactive); in assay [17] it was > 81.1 µM (inactive); in [18] it was > 100 µM (inactive). Further, the GI50 is 19.5 µM (inactive) in assay [19] and 5.94 µM (inactive) in assay [20].

Values taken from ChEMBL document CHEMBL1201862, “PubChem BioAssay data set” (2004).
